This note sets out measurements from patent publication EP0477700A1, “6'-C-alkyl- or alkynyl-neplanocin A, and its preparation process and use” (priority 1990, dated 1992).

Structures are written as SMILES. Values after ≈ are worked out from the molar mass of the structure shown. Like-named read-outs stand apart in the source and are kept apart here.

One data set addresses T1, adenosine deaminase (Bos taurus, UniProt P56658).
T1 sequence (P56658 1-363): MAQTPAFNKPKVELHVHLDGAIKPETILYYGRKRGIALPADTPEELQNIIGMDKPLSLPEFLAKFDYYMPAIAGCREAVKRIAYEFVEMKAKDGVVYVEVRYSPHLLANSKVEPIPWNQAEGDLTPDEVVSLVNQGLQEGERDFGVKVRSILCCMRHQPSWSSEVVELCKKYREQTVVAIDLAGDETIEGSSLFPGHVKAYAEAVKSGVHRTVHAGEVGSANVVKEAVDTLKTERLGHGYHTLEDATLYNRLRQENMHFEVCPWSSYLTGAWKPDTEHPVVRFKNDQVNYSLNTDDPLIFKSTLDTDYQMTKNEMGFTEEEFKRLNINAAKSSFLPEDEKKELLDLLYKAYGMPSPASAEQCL
As to the kind of experiment: Adenosine deaminase resistance (remaining compound measured by HPLC). To be noted: for Percent remainder 0 minute / Percent remainder 30 minutes: 5 mM compound in 0.05 M Tris-HCl buffer (pH 7.2), adenosine deaminase (calf intestine), 25°C.

For data set [1], the system named is Vesicular Stomatitis Virus (VSV). The experiment in a line: microbe, parasite or virus in culture. To be noted: 36 h. The class given is cell-based.
For the next data set, the system named is parainfulenza virus. The experiment in a line: Antiviral activity against parainfluenza virus in Vero cells (minimum virus growth inhibitory concentration). The class given is cell-based.
A further data set concerns Vero cells. As to the kind of experiment: Cytotoxicity in Vero cells (minimum cytotoxicity concentration).

With `CCC(O)C1=C[C@@H](n2cnc3c(N)ncnc32)[C@H](O)[C@@H]1O` (stereo partly shown) [6'-C-Ethylneplanocin A, 6'-C-ethylneplanocin A], at adenosine deaminase, the “Percent remainder 0 minute” value came to 100% and the “Percent remainder 30 minutes” value is 94%.
Consider `C#CC(O)C1=C[C@@H](n2cnc3c(N)ncnc32)[C@H](O)[C@@H]1O` (stereo partly shown) [6'-C-Ethynylneplanocin A, 6'-C-ethynylneplanocin A], for which, in data set [1], the MIC was 0.1 mg/L (≈ 0.348 µM). Moreover, at adenosine deaminase, the “Percent remainder 0 minute” value was 100% and the “Percent remainder 30 minutes” value is reported as 96%.
As for `CC(O)C1=C[C@@H](n2cnc3c(N)ncnc32)[C@H](O)[C@@H]1O` (stereo partly shown) [6'-C-Methylneplanocin A, 6'-C-methylneplanocin A], the MIC in the data set with parainfulenza virus (minimum virus growth inhibitory concentration, parainfulenza virus, Vero cells, read-out: MIC) worked out at 0.1 mg/L (≈ 0.361 µM); in data set [1], 0.1 mg/L (≈ 0.361 µM). Besides, the MCC result with Vero cells is listed as “≧400 µg/mℓ”. Besides, the “Percent remainder 0 minute” value on adenosine deaminase was 100%. Moreover, the “Percent remainder 30 minutes” value on adenosine deaminase came to 92%.
In the case of `Nc1ncnc2c1ncn2[C@@H]1C=C(CO)[C@@H](O)[C@H]1O` [Neplanocin A], the MIC in the data set with parainfulenza virus is 0.1 mg/L (≈ 0.38 µM); in data set [1], 3.9 mg/L (≈ 14.8 µM). Further, the MCC entry in the data set with Vero cells is “≧40 µg/mℓ”. Further, the “Percent remainder 0 minute” value on adenosine deaminase was determined as 100%. On adenosine deaminase, the “Percent remainder 30 minutes” value came out at 0%. This compound had an inactivated at adenosine deaminase (summary of the adenosine deaminase resistance test (conditions of Table 3)) of 100%.
